In ChEMBL document CHEMBL1909046, “DrugMatrix in vitro pharmacology data”:

Assays:
[1] = biological target: T1, Alpha-1B adrenergic receptor (Rattus norvegicus, UniProt P15823); test: DRUGMATRIX: Alpha-1B adrenergic receptor radioligand binding (ligand: prazosin); assay type: cell membranes, Wistar, Liver, Membrane; settings: Not Active = under 50% inhibition at 10 µM
T1 sequence (P15823 whole entry): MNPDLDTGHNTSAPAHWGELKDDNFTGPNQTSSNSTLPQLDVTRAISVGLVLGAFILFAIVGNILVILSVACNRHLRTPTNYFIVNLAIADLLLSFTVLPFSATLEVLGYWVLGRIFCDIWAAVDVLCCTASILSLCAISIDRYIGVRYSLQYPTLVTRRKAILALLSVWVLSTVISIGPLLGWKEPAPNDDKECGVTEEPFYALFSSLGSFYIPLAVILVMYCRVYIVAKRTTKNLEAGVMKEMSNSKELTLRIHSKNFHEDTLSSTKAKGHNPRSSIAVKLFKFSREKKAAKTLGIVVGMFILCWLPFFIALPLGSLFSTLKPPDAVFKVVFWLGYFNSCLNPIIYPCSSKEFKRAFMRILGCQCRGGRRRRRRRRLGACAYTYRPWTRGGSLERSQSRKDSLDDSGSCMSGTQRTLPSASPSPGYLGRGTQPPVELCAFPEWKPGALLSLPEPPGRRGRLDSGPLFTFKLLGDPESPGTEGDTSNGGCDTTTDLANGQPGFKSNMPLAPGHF

[2] = biological target: T2, Type-2 angiotensin II receptor (Homo sapiens, UniProt P50052); assay type: cell-based; settings: cho-k1; note: in other assays of this panel Not Active means under 50% inhibition at 10 µM
T2 sequence (P50052 whole entry): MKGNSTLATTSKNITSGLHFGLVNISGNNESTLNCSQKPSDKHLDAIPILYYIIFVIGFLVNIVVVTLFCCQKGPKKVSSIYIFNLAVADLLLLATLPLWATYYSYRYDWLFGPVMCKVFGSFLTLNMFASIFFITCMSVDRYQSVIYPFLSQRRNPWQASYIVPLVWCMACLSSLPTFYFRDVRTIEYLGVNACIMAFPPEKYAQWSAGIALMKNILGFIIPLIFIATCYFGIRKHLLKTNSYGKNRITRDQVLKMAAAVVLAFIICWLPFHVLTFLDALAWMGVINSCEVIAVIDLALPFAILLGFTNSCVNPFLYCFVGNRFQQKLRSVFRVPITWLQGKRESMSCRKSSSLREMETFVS

[3] = DRUGMATRIX: Glutamate, NMDA, Agonism radioligand binding (ligand: [3H] CGP-39653); assay type: cell membranes, Rattus norvegicus, Wistar, Cerebral cortex, Membrane; settings: Not Active = under 50% inhibition at 10 µM
[4] = DRUGMATRIX: Interleukin IL-1 radioligand binding (ligand: [125I] interleukin 1beta); assay type: cell membranes, Membrane; settings: nih3t3; Not Active = under 50% inhibition at 10 µM
[5] = biological target: Melanocortin receptor 5 (Homo sapiens, UniProt P33032); assay type: cell membranes, Membrane; settings: hek293; note: in other assays of this panel Not Active means under 50% inhibition at 10 µM
[6] = DRUGMATRIX: Platelet-Derived Growth Factor (PDGF) radioligand binding (ligand: [125I] PDGF); assay type: cell-based; settings: nih3t3; Not Active = under 50% inhibition at 10 µM
[7] = biological target: Acetylcholinesterase (Homo sapiens, UniProt P22303); test: DRUGMATRIX: Acetylcholinesterase enzyme inhibition (substrate: acetylthiocholine); assay type: cell-based, HEK293; settings: hek293; Not Active = under 50% inhibition at 10 µM
[8] = biological target: T3, Cytochrome P450 1A2 (Homo sapiens, UniProt P05177); settings: bti-tn-5b1-4; note: in other assays of this panel Not Active means under 50% inhibition at 10 µM
T3 sequence (P05177 whole entry): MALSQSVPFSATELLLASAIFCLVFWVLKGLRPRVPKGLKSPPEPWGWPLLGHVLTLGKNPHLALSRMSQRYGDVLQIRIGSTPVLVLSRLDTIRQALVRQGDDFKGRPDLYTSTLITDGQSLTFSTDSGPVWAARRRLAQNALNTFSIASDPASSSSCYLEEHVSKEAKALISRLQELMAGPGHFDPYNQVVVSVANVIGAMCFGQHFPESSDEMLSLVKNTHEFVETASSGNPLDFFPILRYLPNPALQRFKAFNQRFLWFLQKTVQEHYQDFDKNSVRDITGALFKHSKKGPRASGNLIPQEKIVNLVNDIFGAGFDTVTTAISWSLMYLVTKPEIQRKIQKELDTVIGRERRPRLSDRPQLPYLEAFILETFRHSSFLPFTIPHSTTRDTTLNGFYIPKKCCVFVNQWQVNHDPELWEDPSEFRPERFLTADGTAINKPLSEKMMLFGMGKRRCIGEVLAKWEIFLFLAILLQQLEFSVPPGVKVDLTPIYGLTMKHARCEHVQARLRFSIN

Sequence of Acetylcholinesterase (P22303 whole entry): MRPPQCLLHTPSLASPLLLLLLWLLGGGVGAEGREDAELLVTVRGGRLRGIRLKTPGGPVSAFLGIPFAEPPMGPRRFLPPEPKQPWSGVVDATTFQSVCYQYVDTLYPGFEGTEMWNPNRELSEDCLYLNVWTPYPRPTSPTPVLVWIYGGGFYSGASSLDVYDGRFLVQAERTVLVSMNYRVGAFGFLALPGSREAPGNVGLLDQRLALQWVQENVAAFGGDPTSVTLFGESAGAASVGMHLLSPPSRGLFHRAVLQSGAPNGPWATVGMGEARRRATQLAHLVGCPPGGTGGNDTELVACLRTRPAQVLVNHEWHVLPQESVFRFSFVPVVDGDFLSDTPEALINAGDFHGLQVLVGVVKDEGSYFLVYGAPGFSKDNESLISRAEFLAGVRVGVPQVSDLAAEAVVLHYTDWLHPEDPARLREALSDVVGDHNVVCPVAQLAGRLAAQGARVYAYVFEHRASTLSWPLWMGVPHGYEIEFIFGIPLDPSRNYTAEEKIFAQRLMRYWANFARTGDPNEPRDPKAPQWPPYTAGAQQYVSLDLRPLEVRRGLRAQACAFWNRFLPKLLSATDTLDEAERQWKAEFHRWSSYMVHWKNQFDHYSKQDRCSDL
Sequence of Melanocortin receptor 5 (P33032 whole entry): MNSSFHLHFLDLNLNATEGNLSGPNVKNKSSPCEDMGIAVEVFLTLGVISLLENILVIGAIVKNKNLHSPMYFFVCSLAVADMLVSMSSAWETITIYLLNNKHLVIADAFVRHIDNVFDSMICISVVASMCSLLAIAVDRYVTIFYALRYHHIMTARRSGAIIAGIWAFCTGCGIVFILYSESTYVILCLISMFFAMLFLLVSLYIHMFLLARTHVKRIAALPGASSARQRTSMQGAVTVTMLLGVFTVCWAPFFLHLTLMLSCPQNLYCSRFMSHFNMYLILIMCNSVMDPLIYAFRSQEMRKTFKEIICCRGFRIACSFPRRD

CC(C)Cc1ccc(C(C)C(=O)O)cc1 (centres undefined) [IBUPROFEN]
Not Active: IC50 [1] | IC50 [2] | IC50 [3] | Ki [3] | IC50 [4] | Ki [4] | IC50 [5] | IC50 [6] | Ki [6] | IC50 [7] | IC50 [8] | Ki [8]

COc1ccc2c(c1)c(CC(=O)O)c(C)n2C(=O)c1ccc(Cl)cc1 [INDOMETHACIN]
Not Active: IC50 [1] | IC50 [2] | IC50 [3] | Ki [3] | IC50 [4] | Ki [4] | IC50 [5] | IC50 [6] | Ki [6] | IC50 [7] | IC50 [8] | Ki [8]

CC(C(=O)O)c1cccc(C(=O)c2ccccc2)c1 (centres undefined) [KETOPROFEN]
Not Active: IC50 [1] | IC50 [2] | IC50 [3] | Ki [3] | IC50 [4] | Ki [4] | IC50 [5] | IC50 [6] | Ki [6] | IC50 [7] | IC50 [8] | Ki [8]

Nc1ccn([C@@H]2CS[C@H](CO)O2)c(=O)n1 [LAMIVUDINE]
Not Active: IC50 [1] | IC50 [2] | IC50 [3] | Ki [3] | IC50 [4] | Ki [4] | IC50 [5] | IC50 [6] | Ki [6] | IC50 [7] | IC50 [8] | Ki [8]

O=S(=O)([O-])CCS.[Na+] [MESNA]
Not Active: IC50 [1] | IC50 [2] | IC50 [3] | Ki [3] | IC50 [4] | Ki [4] | IC50 [5] | IC50 [6] | Ki [6] | IC50 [7] | IC50 [8] | Ki [8]

C#C[C@]1(O)CC[C@H]2[C@@H]3CCc4cc(OC)ccc4[C@H]3CC[C@@]21C [MESTRANOL]
Not Active: IC50 [1] | IC50 [2] | IC50 [3] | Ki [3] | IC50 [4] | Ki [4] | IC50 [5] | IC50 [6] | Ki [6] | IC50 [7] | IC50 [8] | Ki [8]

Cc1ncc([N+](=O)[O-])n1CCO [METRONIDAZOLE]
Not Active: IC50 [1] | IC50 [2] | IC50 [3] | Ki [3] | IC50 [4] | Ki [4] | IC50 [5] | IC50 [6] | Ki [6] | IC50 [7] | IC50 [8] | Ki [8]
